Results published in patent publication US20120040965A1, “SUBSTITUTED AZEPINO[4,3-B]INDOLES, PHARMACOLOGICAL COMPOSITION AND A METHOD FOR THE PRODUCTION AND USE THEREOF” (priority 2006, published 2012).

Columns and labels:
[1] = system: male mice of C57BL/6 line; assay: Test of familiar object recognition in a novel localization (spatial memory); assay type: in vivo; conditions: for % of time investigating the object in a novel localization / % of time investigating the object in familiar localization: testing 48 hr after training; for effect on memory: doses of 1 mg/kg and 5 mg/kg
Description: Testing of compounds of general formula 1 on spatial memory in test of novel object recognition. Test of novel object recognition is based on the fact that rats and mice investigate spontaneously a novel object or novel object localization (NL) for longer period of time than the known object or known object localization (KL). The test was tried on rats [A. Ennaceur and J. Delacour, A new one-trial test for neurobiological studies of memory in rats. 1: behavioral data. Behay. Brain Res. 1988, 31, 47-59; J. C. Dodart, C. Mathis and A. Ungerer, Scopolamine-induced deficits in a two-trial object recognition task in mice. NeuroReport 1997, 8, 1173-1178; C. Messier, Object recognition in mice: improvement of memory by glucose. Neurobiol. Learn. Mem. 1997, 67, 172-175; C. Pittenger, Y. Y. Huang, R. F. Paletzki, R. Bourtchouladze, H. Scanlin, S. Vronskaya et al., Reversible inhibition of CREB/ATF transcription factors in region CA1 of the dorsal hippocampus disrupts hippocampus-dependent spatial memory. Neuron 2002, 34, 447-462; A. E. Ryabinin, M. N. Miller and S. Durrant, Effects of acute alcohol administration on object recognition learning in C57BL/6J mice. Pharmacol. Biochem. Behay. 2002, 71, 307-312; F. Sargolini, P. Roullet, A. Oliverio and A. Mele, Effects of intra-accumbens focal administrations of glutamate antagonists on object recognition memory in mice. Behay. Brain Res. 2003, 138, 153-163].
Test of novel object recognition consists of two tests. The first one is novel object localization test use for examination of spatial memory, and the second one—test of novel object recognition for exploring non spatial memory [D. Gaffan, Amnesia for complex naturalistic scenes and for objects following formix transaction in the Rhesus monkey. Eur. J. Neurosci. 1992, 4, 381-388; B. Kolb, K. Buhrmann, R. McDonald and R. Sutherland, Dissociation of the medial prefrontal, posterior parietal, and posterior temporal cortex, for spatial navigation and recognition memory in the rat. Cereb. Cortex 1994, 6, 664-680; T. Steckler, W. H. I. M. Drinkenburgh, A. Sahgal and J. P. Aggleton, Recognition memory in rats. I. Concepts and classification. Prog. Neurobiol. 1998, 54, 289-311. T. Steckler, W. H. I. M. Drinkenburgh, A. Sahgal and J. P. Aggleton, Recognition memory in rats II. Neuroanatomical substrates. Prog. Neurobiol. 1998, 54, 313-332].
Methods of Investigation.
Subjects were male mice of 3-5 month age of C57BL/6 line, weighing 20-24 g. Animals were housed 5 per cage at light mode 12×12 hr with a light part from 8 till 20 o'clock with water and food available. Experimental setup was made of non-transparent white organic glass measuring 48×38×30 cm. As objects of recognition brown glass bottles measuring 2.7 cm diameter and 5.5 cm high were used. The cage and objects of recognition were wiped with 85% alcohol 2-3 min prior placing an animal in the cage. Animals were always placed in the cage centre. 40 Mg of compound of general formula 1 were dissolved in 0.2 ml of DMSO with the following addition of distilled water up to desired concentration. Solutions were prepared just before a trial. All experiments were carried out on two groups of 10 mice each. Animals were injected in dose 1 and 5 mg/kg in volume 0.05 ml on 10 g of animal weight one hour before the trial. The control animals were injected with an equal volume of distilled water.
Acquaintance with the behavioural cage. At the first test day mice were placed into a research chamber and allowed to acclimate for 20-30 min. After that each animal was placed for 10 minutes into an empty, previously treated with alcohol behavioural chamber for acclimation. Then the animal was placed into the cage and taken back to vivarium.
Training. Next day the same mice were placed into a behavioural chamber and allowed to explore for 20-30 min; after acclimation animals were injected intragastrically by the solution of tested compound. […]

[2] = system: male mice of C57BL/6 line; assay: Acute toxicity in mice; assay type: in vivo; conditions: for animals' death: 100 mg/kg
Experimental: Research of acute toxicity. Acute toxicity of the proposed compounds was determined in male mice of C57BL/6 line. […] Observation time was 14 days.

[3] = dose 1 mg/kg intragastrically one hour before training
[4] = dose 5 mg/kg intragastrically one hour before training

SMILES | % of time investigating the object in a novel localization [1, 3] | % of time investigating the object in familiar localization [1, 3] | % of time investigating the object in a novel localization [1, 4] | % of time investigating the object in familiar localization [1, 4] | effect on memory [1] | animals' death ([2]; mouse, in vivo) | duration of sedative action ([2]; doses 100 and 50 mg/kg, mice) | onset of sedative action after injection ([2]; doses 100 and 50 mg/kg, mice) | sedative action ([2]; doses 100 and 50 mg/kg, mice) | sedative action ([2]; doses of 1 and 5 mg/kg, mice) | animals' death ([2]; unitary introduction into stomach, 14 days of watching)
Cc1ccc2c(c1)c1c(n2CCc2ccc(C)nc2)CCCN(C)C1.Cl.Cl [1.1.5(2)HCl, 2,9-dimethyl-6-[2-(6-methylpyridin-3-yl)ethyl]-1,2,3,4,5,6-hexahydroazepino[4,3-b]indole dihydrochloride] | 58.7±9.7% | 41.3±9.7% | 58.8±11.1% | 41.2±11.1% | stimulating effect on memory | do not cause animals' death | – | – | – | – | –
Cc1ccc2c(c1)[C@@H]1CN(C)CCC[C@H]1N2Cc1ccccn1.Cl.Cl (relative stereo) [1.2.6(4)HCl, trans-2,9-dimethyl-6-[(pyridin-2-yl)methyl]-1,2,3,4,5,5a,6,10b-octahydroazepino[4,3-b]indole dihydrochloride] | 49.11±3.3% | 41.3±9.7% | 60.1±9.0% | 39.9±9.0% | stimulating effect on memory | – | > 24 h | 5 to 10 min | pronounced sedative action | not observed | do not cause animals' death
Cc1ccc2c(c1)c1c(n2CCc2ccncc2)CCCN(C)C1.Cl.Cl [1.1.5(3)HCl, 2,9-dimethyl-6-[2-(pyridin-4-yl)ethyl]-1,2,3,4,5,6-hexahydroazepino[4,3-b]indole dihydrochloride] | 55.5±6.2% | 44.5±6.2% | 59.9±5.9% | 40.1±5.9% | stimulating effect on memory | do not cause animals' death | – | – | – | – | –
